From patent publication US20070149465A1, “COMPOSITIONS AND METHODS FOR PREVENTION AND TREATMENT OF CACHEXIA” (priority 2005, published 2007)

Test: Aqueous stability of roxithromycin (% Purity by HPLC)
Type: physicochemical
Conditions: for Roxithromycin % Purity By Area Normalization: 2 mg/mL
Procedure: Roxithromycin stability was determined for 2 mg/mL [roxithromycin] at 5, 25, and 40° C. as a function of pH and buffer (citrate) concentration. Roxithromycin %Purity was determined by area normalization using a reverse-phase HPLC method that meets the requirements of the EP Monograph. Solution pH values were determined per USP <791>.

- stability of aqueous formulation (2 mg/mL roxithromycin, 20 mM citrate buffer at pH 6): satisfactory
- Roxithromycin % Purity By Area Normalization (25° C., citrate pH 4, 20 mM, 0 mo): 81%
- Roxithromycin % Purity By Area Normalization (25° C., citrate pH 4, 20 mM, 0.3 mo): 74%
- Roxithromycin % Purity By Area Normalization (25° C., citrate pH 4, 20 mM, 0.5 mo): 70%
- Roxithromycin % Purity By Area Normalization (25° C., citrate pH 4, 20 mM, 0.9 mo): 65%
- Roxithromycin % Purity By Area Normalization (25° C., citrate pH 4, 20 mM, 1.5 mo): 56%
- Roxithromycin % Purity By Area Normalization (25° C., citrate pH 4, 20 mM, 2.6 mo): 48%
- Roxithromycin % Purity By Area Normalization (25° C., citrate pH 4, 20 mM, 5.3 mo): 28%
- Roxithromycin % Purity By Area Normalization (25° C., citrate pH 4, 20 mM, 7.3 mo): 15%
- Roxithromycin % Purity By Area Normalization (25° C., citrate pH 4, 50 mM, 0 mo): 78%
- Roxithromycin % Purity By Area Normalization (25° C., citrate pH 4, 50 mM, 0.3 mo): 71%
- Roxithromycin % Purity By Area Normalization (25° C., citrate pH 4, 50 mM, 0.5 mo): 65%
- Roxithromycin % Purity By Area Normalization (25° C., citrate pH 4, 50 mM, 0.9 mo): 59%
- Roxithromycin % Purity By Area Normalization (25° C., citrate pH 4, 50 mM, 1.5 mo): 47%
- Roxithromycin % Purity By Area Normalization (25° C., citrate pH 4, 50 mM, 2.6 mo): 33%
- Roxithromycin % Purity By Area Normalization (25° C., citrate pH 4, 50 mM, 5.3 mo): 15%
- Roxithromycin % Purity By Area Normalization (25° C., citrate pH 4, 50 mM, 7.3 mo): 6%
- Roxithromycin % Purity By Area Normalization (25° C., citrate pH 5, 20 mM, 0 mo): 96%
- Roxithromycin % Purity By Area Normalization (25° C., citrate pH 5, 20 mM, 0.3 mo): 88%
- Roxithromycin % Purity By Area Normalization (25° C., citrate pH 5, 20 mM, 0.5 mo): 84%
- Roxithromycin % Purity By Area Normalization (25° C., citrate pH 5, 20 mM, 0.9 mo): 80%
- Roxithromycin % Purity By Area Normalization (25° C., citrate pH 5, 20 mM, 1.5 mo): 77%
- Roxithromycin % Purity By Area Normalization (25° C., citrate pH 5, 20 mM, 2.6 mo): 75%
- Roxithromycin % Purity By Area Normalization (25° C., citrate pH 5, 20 mM, 5.3 mo): 75%
- Roxithromycin % Purity By Area Normalization (25° C., citrate pH 5, 20 mM, 7.3 mo): 71%
- Roxithromycin % Purity By Area Normalization (25° C., citrate pH 5, 50 mM, 0 mo): 92%
- Roxithromycin % Purity By Area Normalization (25° C., citrate pH 5, 50 mM, 0.3 mo): 82%
- Roxithromycin % Purity By Area Normalization (25° C., citrate pH 5, 50 mM, 0.5 mo): 78%
- Roxithromycin % Purity By Area Normalization (25° C., citrate pH 5, 50 mM, 0.9 mo): 77%
- Roxithromycin % Purity By Area Normalization (25° C., citrate pH 5, 50 mM, 1.5 mo): 74%
- Roxithromycin % Purity By Area Normalization (25° C., citrate pH 5, 50 mM, 2.6 mo): 71%
- Roxithromycin % Purity By Area Normalization (25° C., citrate pH 5, 50 mM, 5.3 mo): 67%
- Roxithromycin % Purity By Area Normalization (25° C., citrate pH 5, 50 mM, 7.3 mo): 59%
- Roxithromycin % Purity By Area Normalization (25° C., citrate pH 5, 100 mM, 0 mo): 90%
- Roxithromycin % Purity By Area Normalization (25° C., citrate pH 5, 100 mM, 0.3 mo): 79%
- Roxithromycin % Purity By Area Normalization (25° C., citrate pH 5, 100 mM, 0.5 mo): 76%
- Roxithromycin % Purity By Area Normalization (25° C., citrate pH 6, 20 mM, 0 mo): 98%
- Roxithromycin % Purity By Area Normalization (25° C., citrate pH 6, 20 mM, 0.3 mo): 97%
- Roxithromycin % Purity By Area Normalization (25° C., citrate pH 6, 20 mM, 0.5 mo): 96%
- Roxithromycin % Purity By Area Normalization (25° C., citrate pH 6, 20 mM, 0.9 mo): 96%
- Roxithromycin % Purity By Area Normalization (25° C., citrate pH 6, 20 mM, 1.5 mo): 94%
- Roxithromycin % Purity By Area Normalization (25° C., citrate pH 6, 20 mM, 2.6 mo): 92%
- Roxithromycin % Purity By Area Normalization (25° C., citrate pH 6, 20 mM, 5.3 mo): 90%
- Roxithromycin % Purity By Area Normalization (25° C., citrate pH 6, 20 mM, 7.3 mo): 87%
- Roxithromycin % Purity By Area Normalization (25° C., citrate pH 6, 50 mM, 0 mo): 98%
- Roxithromycin % Purity By Area Normalization (25° C., citrate pH 6, 50 mM, 0.3 mo): 96%
- Roxithromycin % Purity By Area Normalization (25° C., citrate pH 6, 50 mM, 0.5 mo): 94%
- Roxithromycin % Purity By Area Normalization (25° C., citrate pH 6, 50 mM, 0.9 mo): 92%
- Roxithromycin % Purity By Area Normalization (25° C., citrate pH 6, 50 mM, 1.5 mo): 89%
- Roxithromycin % Purity By Area Normalization (25° C., citrate pH 6, 50 mM, 2.6 mo): 85%
- Roxithromycin % Purity By Area Normalization (25° C., citrate pH 6, 50 mM, 5.3 mo): 81%
- Roxithromycin % Purity By Area Normalization (25° C., citrate pH 6, 50 mM, 7.3 mo): 78%
- Roxithromycin % Purity By Area Normalization (40° C., citrate pH 4, 20 mM, 0 mo): 81%
- Roxithromycin % Purity By Area Normalization (40° C., citrate pH 4, 20 mM, 0.3 mo): 27%
- Roxithromycin % Purity By Area Normalization (40° C., citrate pH 4, 20 mM, 0.5 mo): 10%
- Roxithromycin % Purity By Area Normalization (40° C., citrate pH 4, 20 mM, 0.9 mo): 2%
- Roxithromycin % Purity By Area Normalization (40° C., citrate pH 4, 50 mM, 0 mo): 78%
- Roxithromycin % Purity By Area Normalization (40° C., citrate pH 4, 50 mM, 0.3 mo): 15%
- Roxithromycin % Purity By Area Normalization (40° C., citrate pH 4, 50 mM, 0.5 mo): 3%
- Roxithromycin % Purity By Area Normalization (40° C., citrate pH 4, 50 mM, 0.9 mo): 1%
- Roxithromycin % Purity By Area Normalization (40° C., citrate pH 5, 20 mM, 0 mo): 96%
- Roxithromycin % Purity By Area Normalization (40° C., citrate pH 5, 20 mM, 0.3 mo): 74%
Compound: CC[C@H]1OC(=O)[C@H](C)[C@@H](O[C@H]2C[C@@](C)(OC)[C@@H](O)[C@H](C)O2)[C@H](C)[C@@H](O[C@@H]2O[C@H](C)C[C@H](N(C)C)[C@H]2O)[C@](C)(O)C[C@@H](C)/C(=N\OCOCCOC)[C@H](C)[C@@H](O)[C@]1(C)O [roxithromycin]
